# According to US20040037780A1, “Respiratory delivery for gene therapy and lentiviral delivery particle” (priority 2001, published 2004):
# What was measured:
# [1] = tested on: nasal airway epithelium; assay: Adenoviral (AdlLacZ) LacZ gene transfer into mouse nasal airway after detergent pre-treatment; type: in vivo, mice; settings: 4 μl detergent (SDS 0.25%, ZWIT 0.14%, DEOXY 0.17%) 1 h before AdlLacZ 1×10^9 pfu; 3 days; FIG. 7
# Description: The detergents tested were Sodium n-dodecyl sulfate (SDS), (an anionic detergent) at 0.25%, Zwittergent 3-14: N-Tetradecylsulfobetaine (ZWIT) (a zwitterionic detergent) at 0.14%, Cetyltrimethylammonium bromide (CTAB) (an ionic detergent) at 0.15%, Deoxycholic Acid (DEOXY) (an ionic detergent) at 0.17%, with phosphate buffered saline as a control.
# Detergents were made up fresh to nominated concentrations. A single 4 μl dose was used per mouse (all were approximately 20 gm body weight). An Adenoviral vector (AdlLacZ) dose of 1×10^9 pfu in 20 μl. Mice were anaesthetised with Xylamine/Ketamine i.m.; then suspended vertically (hanging on dorsal incisor teeth). The detergent dose was instilled into the nostril opening in one bolus via a micropipettor.
# The mouse was set aside for one hour; re-anaesthetised as needed, 1 hour later 20 μl of viral vector was instilled into the same nostril. The mouse was allowed to recover and returned to caging. Three days later the mice were killed with CO2 excess, head removed and the nasal airways were flushed with fixative. These were taken through standard “X-gal” processing to reveal blue stained cells that represent LacZ gene transfer. Cells were processing to wax sections and stained with Safranin-O or haemotoxylin/oesin. Stained cells present along the perimeter of 3 standard cross-sections in the treated nasal airway were counted. […]
# [2] = tested on: nasal airway epithelium; assay: LV-mediated LacZ gene transfer into mouse nasal airway (X-gal, count of LacZ positive cells); type: in vivo, C57B1/6 mice; settings: for LacZ positive cells ± SEM: 3 standard cross-sections, n=3
# [3] = tested on: CFTR-mediated chloride secretion; assay: Nasal TPD/ΔPD measurement of CFTR function after LVCFTR dosing; type: in vivo; settings: homozygote cftr^tmlUnc mice, 1% LPC 1 h prior to PBS (control) instillation; 7 days later
# Description: C57B1/6 and cftr^tmlUnc mice (Snouwaert et al., 1992) were used under the approval of both the Women's and Children's Hospital and the University of Adelaide Animal Ethics Committees. C57B1/6 mice (6-7 weeks of age), or cftr^tmlUnc mice (8-20 weeks of age) were anaesthetised intramuscularly with 1 μl/g and 0.7 μl/g body weight respectively of a 3:2 mixture of xylazil (20 mg/ml):ketamine (100 mg/ml) respectively. Body temperature was maintained during anaesthesia with a heat pad, or heat lamp and during the recovery period the mice were placed in a 35° C. air chamber. For dosing, mice were suspended from their dorsal incisors (hindquarters supported) and pre-treatment solutions (4 μl of LPC (Sigma L-4129), or polidocanol (Sigma P-9641), prepared as w/v solutions in PBS) delivered as a bolus into the right nostril using a gel-loading tip (Finnpippette). […] The mice were monitored for respiratory distress and any loss of treatment solution was noted. […]
# CFTR gene expression: Mice were anaesthetised, suspended from their dorsal incisors (hindquarters supported) and a subcutaneous needle-agar bridge (as reference electrode) was placed in the abdomen. […] TPD values were measured (blinded) from chart paper recordings, and the ΔPD value was calculated by subtracting the TPD value recorded under basal conditions from the TPD value measured under low-chloride conditions. […]
# [4] = tested on: nasal airway surface epithelium; assay: Transepithelial potential difference (TPD) after penetrating agent, damage of epithelia; type: in vivo, mice; settings: for recovery of TDP function: longer time course, FIG. 11
# Description: The method of choice for assessing an appropriate level of damage is by the measurement of transepithelial potential difference (TDP) (Middleton et al., 1994; Knowles et al., 1995; Lee et al., 1999). In general, damage to epithelium with penetrating agents cause at least opening of the tight junctions and this causes the resident negative TPD on the airway surface to go toward zero. If there is exfoliation (that is substantial damage) then the TPD goes to zero quickly and takes several days to return to normal because the epithelia cells have been stripped off and have to regenerate.
# Measurement of TPD was performed under zero-chloride perfusion to give a larger baseline TPD value from which to measure change. Under these conditions the values are typically around −20 mV compared to about −5 mV if normal perfusion saline is used. Mice are anaesthetised, TPD cannula is inserted, then the detergent dose is instilled in the same nostril, the effect is then followed in this anterior part of the nose. The methods used for measuring TDP are largely as described in Parsons et al., 1998. For method for use in human see Middleton et al., 1994 and Knowles et al., 1995.
# The dosage of detergent used is 4 μl of PBS, PDOC of LPC and is in line with methods used in the above examples. The solutions of detergent use are 0.01, 0.1 and 1.0%. The TDP value was determined 5 minutes after administration of the detergent. The values are presented graphically in FIG. 8. […] A score of 100% represents the pretest TDP value. […] A TDP value of less than about 60% is though to be preferable.
# The same doses of LPC were used as for experiment 1 but TDP was measured at 2, 5 and 10 minutes after administration. The data are presented graphically in FIG. 9. […] Thus should 0.01% LPC be used for treatment of the lung then lentivirus should be delivered within 10 minutes.
# This uses that same doses of PDOC as in experiment 1 and as in experiment 2 TDP was measured at 2, 5 and 10 minutes after administration. The data from this experiment are presented graphically in FIG. 10.
# TDP was measured over a longer time course using PDOC as the penetrating agent. The doses used in this experiment were (per mouse) 10 μl of 1.0% PDOC, 4 μl of 1.0% PDOC and 4 μl of 0.1% PDOC. […] A recovery of TDP function within about 1 day is considered to be transient.
# [5] = tested on: nasal airway epithelium; assay: Histological injury after dosing with LPC alone; type: in vivo, mouse; settings: 1% LPC alone
# [6] = tested on: freshly-excised mouse nasal airway epithelium; settings: unpublished data
# [7] = tested on: A549; assay: Effect of detergent on viral gene transfer in vitro, non-polarised cells; type: cell-based; settings: AdV5CMVLacZ vector added 10, 30 and 60 mins following polidocanol treatment
# Description: (§1) The effect of detergents (polidocanol and lysophospatidylcholine) on the level of viral gene transfer were firstly evaluated in vitro.
# (§2) Initial experiments made use of the AdV5CMVLacZ vector (a generous gift from Dr. R. C. Boucher). […] This dose of polidocanol was assessed on polarised cells (MDCK) and also non-polarised cells (A549). The AdV vector was added at 10, 30 and 60 mins following treatment. […] When the experiments were repeated using the LV vector we found the same effect.
# [8] = tested on: MDCK; assay: Effect of detergent on viral gene transfer in vitro, polarised cells; type: cell-based; settings: AdV5CMVLacZ vector added 10, 30 and 60 mins following polidocanol treatment, P<0.05
# Description: as §1, §2
# [9] = 0.1% pre-treatment (4 μl) 1 h before 20 μl LVLacZa (6×10^4 NIH3T3-TU), 7 days
# [10] = 1% pre-treatment (4 μl), then PBS instead of vector, 7 days
molecule,measurement,setting,value
"CCCCCCCCCCCCOS(=O)(=O)[O-].[Na+] [SDS, Sodium n-dodecyl sulfate]","numbers of transductants over the control PBS, respiratory cells",[1],considerable increase in numbers of transductants
"CCCCCCCCCCCCCC[N+](C)(C)CCCS(=O)(=O)[O-] [Zwit, N-Tetradecylsulfobetaine]","numbers of transductants over the control PBS, respiratory cells",[1],considerable increase in numbers of transductants
lysophosphatidylcholine [LPC],LacZ positive cells ± SEM,[2]; [9],4.3 ± 0.7
same,increase in the level of LV-mediated transduction compared to pre-treatment with 1% polidocanol,"[2]; 1% LPC pre-treatment, LVLacZa, 7 days",4 fold
same,LacZ positive cells ± SEM,[2]; [10],0.0 ± 0.0
same,ΔPD,[3],+8±3.2 mV
same,TPD relative to pretest TPD,"[4]; 4 μl of 0.01% LPC, after 10 minutes, FIG. 9",not significantly different to pretest TPD
same,histological injury observed immediately after dosing,[5],limited areas of deciliation or exfoliation found anteriorly close the dosed site
same,effect on cilial beat,[6],dose-dependant reversibility of reduction in cilial beat
polybrene,number of LacZ positive cells,"[2]; 1% LPC pre-treatment, LVLacZa vector preparation containing 4 μg/ml polybrene, 7 days",5.0±1.0
same,decrease in the number of LacZ positive cells on inclusion of polybrene in the LVLacZa preparation,"[2]; 1% LPC pre-treatment, vs polybrene-free LVLacZa, P=0.002",4 fold
polyoxyethylene 9-lauryl ether [PDOC],LacZ positive cells ± SEM,[2]; [9],2.7 ± 0.3
same,LacZ positive cells ± SEM,"[2]; 1% pre-treatment (4 μl) 1 h before 20 μl LVLacZa (6×10^4 NIH3T3-TU), polybrene-free, 7 days",5.3 ± 1.3
same,LacZ positive cells ± SEM,[2]; [10],0.0 ± 0.0
same,effect on TDP value,"[4]; 4 μl of 0.01, 0.1 and 1.0% solutions, 5 minutes after administration, FIG. 8",greater effect on TDP value than LPC
same,recovery of TDP function,[4]; 4 μl of 0.1% PDOC,rapidly recovers
same,recovery of TDP function,[4]; 10 μl of 1.0% PDOC and 4 μl of 1.0% PDOC (first two doses),extended
same,level of gene transfer between vector instillation times,[7],no apparent difference
same,gene transfer when vector added one hour after treatment compared to shorter time points,[8],significantly improved
